The source of these data is patent publication US11279730B2, “Oxysterols and methods of use thereof” (Sage Therapeutics, Inc., priority 2016, dated 2022).

By EC50 is commonly meant the concentration needed to bring the measured effect to its halfway point. What is called Emax is the size of the effect at its maximum, as opposed to the concentration needed.

The target of test [1] is T1, GlunN1/GluN2A glutamate receptors (Homo sapiens, UniProt Q05586+Q12879).
T1 construct: expressed in transfected cells
T1 sequence (Q12879 23-1464, other chains not shown): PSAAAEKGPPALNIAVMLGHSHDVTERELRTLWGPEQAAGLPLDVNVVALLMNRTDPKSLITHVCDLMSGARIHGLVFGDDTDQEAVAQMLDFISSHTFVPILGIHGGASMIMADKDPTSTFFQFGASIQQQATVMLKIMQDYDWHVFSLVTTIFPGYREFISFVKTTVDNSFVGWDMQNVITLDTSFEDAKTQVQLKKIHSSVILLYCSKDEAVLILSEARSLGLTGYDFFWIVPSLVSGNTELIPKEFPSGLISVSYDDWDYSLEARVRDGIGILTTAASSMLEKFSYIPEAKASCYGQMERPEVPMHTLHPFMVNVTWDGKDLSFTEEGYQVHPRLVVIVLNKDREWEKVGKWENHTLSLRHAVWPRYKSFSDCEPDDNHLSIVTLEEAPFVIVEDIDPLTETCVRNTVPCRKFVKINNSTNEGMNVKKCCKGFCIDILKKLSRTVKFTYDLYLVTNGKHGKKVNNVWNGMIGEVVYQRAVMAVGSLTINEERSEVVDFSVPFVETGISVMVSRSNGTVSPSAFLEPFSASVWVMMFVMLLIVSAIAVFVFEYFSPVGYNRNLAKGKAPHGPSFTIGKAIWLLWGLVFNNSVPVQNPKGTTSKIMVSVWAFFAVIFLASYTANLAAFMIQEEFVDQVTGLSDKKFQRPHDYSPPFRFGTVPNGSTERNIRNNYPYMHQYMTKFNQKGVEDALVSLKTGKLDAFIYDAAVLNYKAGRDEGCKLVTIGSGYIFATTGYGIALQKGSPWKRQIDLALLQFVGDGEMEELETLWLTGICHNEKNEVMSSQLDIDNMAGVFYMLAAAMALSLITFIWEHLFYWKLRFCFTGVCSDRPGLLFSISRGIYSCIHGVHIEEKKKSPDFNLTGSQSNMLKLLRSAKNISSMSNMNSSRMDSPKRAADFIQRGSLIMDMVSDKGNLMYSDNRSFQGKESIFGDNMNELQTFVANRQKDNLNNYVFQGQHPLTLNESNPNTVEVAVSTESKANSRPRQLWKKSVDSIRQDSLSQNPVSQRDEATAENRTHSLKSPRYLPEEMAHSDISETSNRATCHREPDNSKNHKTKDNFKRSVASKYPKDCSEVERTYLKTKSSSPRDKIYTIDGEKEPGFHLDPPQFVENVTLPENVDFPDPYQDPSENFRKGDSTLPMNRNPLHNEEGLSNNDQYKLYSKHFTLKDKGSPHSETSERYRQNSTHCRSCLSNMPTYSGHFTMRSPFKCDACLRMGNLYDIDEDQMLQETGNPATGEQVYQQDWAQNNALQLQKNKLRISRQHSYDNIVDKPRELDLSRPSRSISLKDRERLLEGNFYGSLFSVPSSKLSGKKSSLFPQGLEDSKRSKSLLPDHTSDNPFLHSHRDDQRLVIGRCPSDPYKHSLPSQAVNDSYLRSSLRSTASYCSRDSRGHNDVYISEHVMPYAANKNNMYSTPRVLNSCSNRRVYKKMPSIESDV
Description: Whole-cell patch clamp of mammalian cells (Ionworks Barracuda, IWB), NMDA potentiation (PAM), GluN2A. Format: cell-based. The note with it: peak current amplitude; for EC50: 8-point concentration-response, read-out: GluN2A PCA EC50; for Emax: maximal potentiation, read-out: GluN2A PCA Emax (%); for GluN2A PCA IWB Ephys % potentiation at 3 μM: 3 μM test compound, co-application with EC20 L-glutamate and 30 μM glycine. As for the experimental part: (§1) NMDA potentiation in mammalian cells which expressed NMDA receptors was assessed using the whole cell patch clamp to determine the PAM activity of compounds as described below. An automatic patch-clamp system can be used determine the […] activity of compounds as described below.
(§2) The whole-cell patch-clamp technique was used to investigate the effects of positive allosteric modulating activity of test compounds on GlunN1/GluN2A and GluN2B glutamate receptors expressed in mammalian cells.
HEK293 cells were transformed with adenovirus 5 DNA and transfected with cDNA encoding the human GRIN1/GRIN2A genes. Stable transfectants were selected using G418 and Zeocin-resistance genes incorporated into the expression plasmid and selection pressure maintained with G418 and Zeocin in the medium. Cells were cultured in Dulbecco's Modified Eagle Medium/Nutrient Mixture (D-MEM/F-12) supplemented with 10% fetal bovine serum, 100 μg/ml penicillin G sodium, 100 μg/ml streptomycin sulphate, 100 μg/ml Zeocin, 5 μg/ml blasticidin and 500 μg/ml G418.
(§3) Test article effects were evaluated in 8-point concentration-response format (4 replicate wells/concentration). All test and control solutions contained 0.3% DMSO and 0.01% Kolliphor® EL (C5135, Sigma). The test article formulations were loaded in a 384-well compound plate using an automated liquid handling system (SciClone ALH3000, Caliper LifeSciences). The measurements were performed using Ion Works Barracuda platform following this procedure:
(§4) • a) Intracellular solution (mM): 50 mM CsCl, 90 mM CsF, 2 mM MgCl2, 5 mM EGTA, 10 mM HEPES. Adjust to pH 7.2 with CsOH. • b) Extracellular solution, HB-PS (composition in mM): NaCl, 137; KCl, 1.0; CaCl2, 5; HEPES, 10; Glucose, 10; pH adjusted to 7.4 with NaOH (refrigerated until use). • c) Holding potential: −70 mV, potential during agonist/PAM application: −40 mV. Recording Procedure: • a) Extracellular buffer will be loaded into the PPC plate wells (11 μL per well). Cell suspension will be pipetted into the wells (9 μL per well) of the PPC planar electrode. • b) Whole-cell recording configuration will be established via patch perforation with membrane currents recorded by on-board patch clamp amplifiers. • c) Two recordings (scans) will be performed. First, during pre-application of test article alone (duration of pre-application—5 min) and second, during test articles and agonist (EC20 L-glutamate and 30 μM glycine) co-application to detect positive modulatory effects of the test article.
(§5) Test Article Administration: The first pre-application will consist of the addition of 20 μL of 2× concentrated test article solution and, second, of 20 μL of 1× concentrated test article and agonist at 10 μL/s (2 second total application time).
(§6) Potentiating effect of positive allosteric modulators (PAM) on the channel will be calculated as % activation=(IPAM/IEC10-30)×100%−100% where IPAM will be the L-glutamate EC10-30-elicited current in presence of various concentrations of test articles and IEC20 will be the mean current elicited with L-glutamate EC20. PAM concentration-response data will be fitted to an equation of the form: % Activation=% L-glutamate EC20+{(% MAX−% L-glutamate EC20)/[1+([Test]/EC50)^N]} where [Test] will be the concentration of PAM (test article), EC50 will be the concentration of PAM producing half-maximal activation, N will be the Hill coefficient, % L-glutamate EC20 will be the percentage of the current Elicited with L-glutamate EC20, % MAX is the percentage of the current activated with the highest dose of PAM co-admitted with L-glutamate EC20 and % Activation will be the percentage of the current elicited with L-glutamate EC10-30 at each PAM concentration.
(§7) The maximal amplitude of the evoked currents are measured and defined as Peak Current Amplitude (PCA).

The target of test [2] is T2, GluN2B glutamate receptors (Homo sapiens, UniProt Q05586+Q13224).
T2 construct: expressed in transfected cells
T2 sequence (Q13224 27-1484, other chains not shown): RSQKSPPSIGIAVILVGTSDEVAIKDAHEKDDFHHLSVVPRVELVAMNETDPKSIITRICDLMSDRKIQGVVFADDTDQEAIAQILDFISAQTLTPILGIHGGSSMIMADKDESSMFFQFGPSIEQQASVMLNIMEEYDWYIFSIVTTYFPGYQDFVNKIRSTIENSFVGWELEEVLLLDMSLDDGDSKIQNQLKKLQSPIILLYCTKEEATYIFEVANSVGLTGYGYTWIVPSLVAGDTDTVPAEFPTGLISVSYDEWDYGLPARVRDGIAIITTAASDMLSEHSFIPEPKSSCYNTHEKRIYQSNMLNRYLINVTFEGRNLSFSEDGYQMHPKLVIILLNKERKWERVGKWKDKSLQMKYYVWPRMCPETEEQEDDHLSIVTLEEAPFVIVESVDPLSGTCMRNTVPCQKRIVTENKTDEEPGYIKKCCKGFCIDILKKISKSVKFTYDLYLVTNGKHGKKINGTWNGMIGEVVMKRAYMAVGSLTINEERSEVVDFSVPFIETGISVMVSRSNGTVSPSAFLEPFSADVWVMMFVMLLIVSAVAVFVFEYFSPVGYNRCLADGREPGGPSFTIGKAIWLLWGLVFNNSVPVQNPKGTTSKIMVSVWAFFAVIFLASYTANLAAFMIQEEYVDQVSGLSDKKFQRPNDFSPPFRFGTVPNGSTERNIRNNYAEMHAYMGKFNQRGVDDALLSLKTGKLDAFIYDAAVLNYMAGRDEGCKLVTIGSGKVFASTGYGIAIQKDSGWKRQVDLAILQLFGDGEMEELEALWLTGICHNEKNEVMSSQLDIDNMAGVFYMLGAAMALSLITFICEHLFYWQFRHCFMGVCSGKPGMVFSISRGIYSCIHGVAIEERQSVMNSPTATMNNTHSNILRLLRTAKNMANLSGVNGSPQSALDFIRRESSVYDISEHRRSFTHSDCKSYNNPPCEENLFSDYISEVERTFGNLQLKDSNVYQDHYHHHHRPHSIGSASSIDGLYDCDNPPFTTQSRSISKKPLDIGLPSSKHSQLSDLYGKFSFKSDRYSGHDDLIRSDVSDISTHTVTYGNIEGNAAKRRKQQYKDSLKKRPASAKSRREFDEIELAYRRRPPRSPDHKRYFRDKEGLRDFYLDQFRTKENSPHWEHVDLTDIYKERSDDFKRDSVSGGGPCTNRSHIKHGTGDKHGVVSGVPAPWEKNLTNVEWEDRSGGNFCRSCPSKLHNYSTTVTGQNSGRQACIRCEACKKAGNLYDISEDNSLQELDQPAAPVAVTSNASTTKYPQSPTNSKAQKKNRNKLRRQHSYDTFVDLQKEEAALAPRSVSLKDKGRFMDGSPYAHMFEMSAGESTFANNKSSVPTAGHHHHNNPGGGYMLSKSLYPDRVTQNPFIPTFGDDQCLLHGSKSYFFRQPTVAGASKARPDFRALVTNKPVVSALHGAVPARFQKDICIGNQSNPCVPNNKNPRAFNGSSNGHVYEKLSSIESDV
Description: Whole-cell patch clamp of mammalian cells (Ionworks Barracuda, IWB), NMDA potentiation (PAM), GluN2B. Format: cell-based. The note with it: peak current amplitude; for EC50: 8-point concentration-response, read-out: GluN2B PCA EC50; for Emax: maximal potentiation, read-out: GluN2B PCA Emax (%); for GluN2B PCA IWB Ephys % potentiation at 3 μM: 3 μM test compound, co-application with EC20 L-glutamate and 30 μM glycine. As for the experimental part: as §1, §2, §3, §4, §5, §6, §7
(Patch clamp records ionic current or voltage across a cell membrane.)

For the compound `CC[C@]1(O)CC[C@@]2(C)C(=CC[C@H]3[C@@H]4CC[C@H]([C@H](C)CC[C@H](O)C(C)C)[C@@]4(C)CC(=O)[C@@H]32)C1` [Compound 7], in test [1], the EC50 fell in the range of 1 to 100 nM and the Emax is 100 to 500%. In addition, in test [2], the EC50 lay within 1 to 100 nM and the Emax lay within 100 to 500%.
Turning to `CC[C@]1(O)CC[C@@]2(C)C(=CC[C@H]3[C@@H]4CC[C@H]([C@H](C)CCC(C)(C)O)[C@@]4(C)CC(=O)[C@@H]32)C1` [Compound 5], in test [1], the EC50 was in the range of 100 to 500 nM and the Emax lay within 100 to 500%. Also, in test [2], the EC50 was 100 to 500 nM and the Emax was in the range of 100 to 500%.
On to `C[C@H](CCC(C)(C)O)[C@H]1CC[C@H]2[C@@H]3CC=C4C[C@@H](O)CC[C@]4(C)[C@H]3[C@@H](O)C[C@]12C` [Compound 3], for which, in test [1], the “GluN2A PCA IWB Ephys % potentiation at 3 μM” value is “A (“A” indicates % potentiation up to 100%)”, the EC50 is not below 10000 nM and the Emax was less than 100%. Besides, in test [2], the “GluN2B PCA IWB Ephys % potentiation at 3 μM” value is listed as “B (“B” indicates potentiation of >100%)”, the EC50 lay in the range of 500 to 1000 nM and the Emax was in the range of 100 to 500%.
Consider `C[C@H](CCC(C)(C)O)[C@H]1CC[C@H]2[C@@H]3CC[C@H]4C[C@@](C)(O)CC[C@]4(C)[C@H]3C(=O)C[C@]12C` [Compound 1], for which, in test [1], the “GluN2A PCA IWB Ephys % potentiation at 3 μM” value is given as “B (“B” indicates potentiation of >100%)”, the EC50 was in the range of 500 to 1000 nM and the Emax was in the range of 100 to 500%. In test [2], the “GluN2B PCA IWB Ephys % potentiation at 3 μM” value is on record as “B (“B” indicates potentiation of >100%)”, the EC50 is 500 to 1000 nM and the Emax lay in the range of 100 to 500%.
With `CC[C@]1(O)CC[C@@]2(C)C(=CC[C@H]3[C@@H]4CC[C@H]([C@H](C)CC[C@@H](O)C(C)(C)C)[C@@]4(C)CC(=O)[C@@H]32)C1` [Compound 10], in test [1], the EC50 fell in the range of 1 to 100 nM and the Emax was more than 500%. Moreover, in test [2], the concentration giving a half-maximal response (EC50) fell in the range of 1 to 100 nM and the Emax is 100 to 500%.
Regarding `C[C@H](CCC(C)(C)O)[C@H]1CC[C@H]2[C@@H]3CC=C4C[C@@](C)(O)CC[C@]4(C)[C@H]3C(C)(O)C[C@]12C` (some centres unmarked) [Compound 11], in test [1], the “GluN2A PCA IWB Ephys % potentiation at 3 μM” value is given as “B (“B” indicates potentiation of >100%)”, the EC50 lay within 500 to 1000 nM and the Emax was in the range of 100 to 500%. Moreover, in test [2], the “GluN2B PCA IWB Ephys % potentiation at 3 μM” value is “B (“B” indicates potentiation of >100%)”, the EC50 was in the range of 1000 to 10000 nM and the Emax lay within 100 to 500%.
For `CC[C@]1(O)CC[C@@]2(C)C(=CC[C@H]3[C@@H]4CC[C@H]([C@H](C)CC[C@H](O)C(C)(C)C)[C@@]4(C)CC(=O)[C@@H]32)C1` [Compound 9], the EC50 in test [1] and in test [2] was 1 to 100 nM throughout. For the same compound, the maximum response (Emax) in test [1] was more than 500%; in test [2] it was 100 to 500%.
For the compound `C[C@H](CCC(C)(C)O)[C@H]1CC[C@H]2[C@@H]3CC[C@H]4C[C@@H](O)CC[C@]4(C)[C@H]3C(=O)C[C@]12C` [Compound 2], in test [1], the “GluN2A PCA IWB Ephys % potentiation at 3 μM” value is “A (“A” indicates % potentiation up to 100%)”, the 50% effective concentration (EC50) was 1000 to 10000 nM and the Emax is less than 100%. In test [2], the “GluN2B PCA IWB Ephys % potentiation at 3 μM” value is given as “A (“A” indicates % potentiation up to 100%)”, the EC50 was 500 to 1000 nM and the Emax was less than 100%.
Consider `CC[C@]1(O)CC[C@@]2(C)C(=CC[C@H]3[C@@H]4CC[C@H]([C@H](C)CC[C@@H](O)C(C)C)[C@@]4(C)CC(=O)[C@@H]32)C1` [Compound 6], for which, in test [1], the EC50 lay within 1 to 100 nM and the Emax lay within 100 to 500%. Also, in test [2], the EC50 lay within 1 to 100 nM and the Emax lay within 100 to 500%.
As to `C[C@H](CCC(C)(C)O)[C@H]1CC[C@H]2[C@@H]3CC=C4C[C@@H](O)CC[C@]4(C)[C@H]3C(=O)C[C@]12C` [Compound 4], in test [1], the “GluN2A PCA IWB Ephys % potentiation at 3 μM” value is “B (“B” indicates potentiation of >100%)”, the EC50 lay in the range of 100 to 500 nM and the Emax fell in the range of 100 to 500%. Further, in test [2], the “GluN2B PCA IWB Ephys % potentiation at 3 μM” value was “B (“B” indicates potentiation of >100%)”, the EC50 was 100 to 500 nM and the Emax lay in the range of 100 to 500%.
